Measurements taken from patent publication EP4342467A1, “KU INHIBITORS FOR USE IN TUMOR THERAPY” (Masarykova Univerzita, priority 2022, dated 2024).

Legend:
DNA-PKcs = DNA-PKcs autophosphorylation (S2056) after bleomycin, Western blotting in HCT116 cells; format: cell-based, human; details: HCT116, pre-incubated 1 hr
Method: iKU-1 blocks activation of DNA-PKcs upon induction of DNA damage in vivo (Figure 2). HCT116 cells were pre-incubated with iKU-1 for 1 hr in McCoy's 5a medium supplemented with 10% Fetal Bovine Serum, 2 mM L-Glutamine, Penicilin/Streptomycin 200 U/l each. DNA breaks were induced by addition of bleomycin and incubated for additional 4 hrs. DNA damage triggers DNA-PKcs activity that leads to its autophosphorylation at the residue 2056. The phosphorylated DNA-PKcs was detected by Western blotting using anti-pDNA PKcs (phospho S2056) antibody [EPR5670] (Abcam, ab124918) and the total amount of DNA-PKcs with the anti-DNA PKcs antibody (BioRad, AHP318), both in 1:10000 dilution in TBS-T buffer overnight at 4°C. The primary antibody was detected by immunostaining with IRDye 800CW-conjugated Goat anti-Rabbit IgG secondary antibody (dilution 1:20000 in TBS-T). The signal was imaged using Odyssey Imager (Li-Cor). […] The total level of DNA-PKcs was not altered by the treatment.

Ku complex [1] = biological target: T1, Ku complex (Homo sapiens, UniProt P12956+P13010); assay: microwell protein induced fluorescent enhancement assay (mwPIFE) of Ku-DNA binding
T1 sequence (P12956 whole entry): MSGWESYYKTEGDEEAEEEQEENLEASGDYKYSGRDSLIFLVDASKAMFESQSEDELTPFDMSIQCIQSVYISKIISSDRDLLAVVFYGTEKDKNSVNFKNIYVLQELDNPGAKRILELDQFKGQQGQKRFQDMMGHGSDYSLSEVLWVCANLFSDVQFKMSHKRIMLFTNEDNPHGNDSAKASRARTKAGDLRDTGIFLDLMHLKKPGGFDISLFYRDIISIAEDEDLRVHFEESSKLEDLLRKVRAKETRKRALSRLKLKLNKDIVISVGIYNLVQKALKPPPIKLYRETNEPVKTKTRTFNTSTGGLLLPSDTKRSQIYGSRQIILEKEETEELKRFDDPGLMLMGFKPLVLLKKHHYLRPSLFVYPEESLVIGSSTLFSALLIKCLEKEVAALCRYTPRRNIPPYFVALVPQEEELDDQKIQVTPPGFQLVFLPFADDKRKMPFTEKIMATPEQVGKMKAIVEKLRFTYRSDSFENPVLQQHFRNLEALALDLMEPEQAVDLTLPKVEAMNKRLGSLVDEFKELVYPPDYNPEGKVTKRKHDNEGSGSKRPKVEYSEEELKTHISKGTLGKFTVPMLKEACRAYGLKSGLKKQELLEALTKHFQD
T1 sequence (P13010 whole entry): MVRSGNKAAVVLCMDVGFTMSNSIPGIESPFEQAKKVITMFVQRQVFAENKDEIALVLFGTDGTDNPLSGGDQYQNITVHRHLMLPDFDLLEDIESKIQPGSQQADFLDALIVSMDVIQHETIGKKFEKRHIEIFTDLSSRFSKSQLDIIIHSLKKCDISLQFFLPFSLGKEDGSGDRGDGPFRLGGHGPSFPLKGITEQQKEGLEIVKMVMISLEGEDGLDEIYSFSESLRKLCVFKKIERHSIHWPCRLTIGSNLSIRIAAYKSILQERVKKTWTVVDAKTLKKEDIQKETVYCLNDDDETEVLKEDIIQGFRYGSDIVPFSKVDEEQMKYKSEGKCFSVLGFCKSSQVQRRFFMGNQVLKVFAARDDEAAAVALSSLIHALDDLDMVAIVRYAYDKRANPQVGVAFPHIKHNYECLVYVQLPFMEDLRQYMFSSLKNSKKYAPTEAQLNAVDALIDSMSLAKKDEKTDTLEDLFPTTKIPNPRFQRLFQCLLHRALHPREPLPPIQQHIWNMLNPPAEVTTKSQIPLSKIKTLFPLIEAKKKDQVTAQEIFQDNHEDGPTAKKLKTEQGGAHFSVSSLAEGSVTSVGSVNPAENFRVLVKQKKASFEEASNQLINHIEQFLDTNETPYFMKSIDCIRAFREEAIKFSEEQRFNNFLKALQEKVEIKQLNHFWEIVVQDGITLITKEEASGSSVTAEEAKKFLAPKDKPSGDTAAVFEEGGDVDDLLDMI
Method: A rapid method for detecting protein-nucleic acid interactions by protein induced fluorescence enhancement. Sci Rep 6, 39653. mwPIFE is based on enhanced fluorescence of cyanine fluorophores attached to nucleic acid probes upon protein binding. […] The probe was immobilized in 96 well plates through biotin (Btn) attached to one end of DNA and incubated with purified Ku complex (0.5 pmol) in 50 µl of binding buffer (10 mM calcium acetate, 60 mM potassium acetate, 20 mM TRISacetate pH 7.9, 100 mg BSA/1). Ku-DNA binding was calculated from altered fluorescence measured by a fluorescence plate reader (Valuchova et al., 2016). […]

HeLa = assay: combination with BIBR1532, relative growth by ATPlite; format: cell-based, human; details: 10 µM BIBR1532, 0.25 µM iKU-1 or their combination, 4 days
HCT116 cells [2] = assay: Q-FISH scoring of chromosome arms with no telomeric signal; format: cell-based, human; details: HCT116, one or two days, 2 or 5 µM
Method: Presence of extrachromosomal circular telomeric DNA indicates rapid telomere shortening via excision of telomeric circles. To validate this prediction, we scored chromosome arms with no telomeric signal on metaphase chromosomes from iKU-1 treated cells by quantitative fluorescence in situ hybridization (Q-FISH). HCT116 cells were incubated for one or two days in McCoy's 5a medium with 10% Fetal Bovine Serum, 2 mM L-Glutamine and Penicilin/Streptomycin 200 U/l each and supplemented with iKU-1 (2 or 5 µM). Treated cells were incubated with colcemid (0.05 µg/ml) for 3 hours to increase a number of cells in metaphase. Cells were harvested and fixed in methanol and glacial acetic acid (3:1 v/v). Chromosome spreads on slides were hybridized with telomeric peptide nucleid acid probe TelC-Cy3 (Panagene, F1002) in 70% formamide, 0.5% blocking reagent (Roche) and 20 mM TRIS-Cl pH 7.4 according manufacturer's instruction. After washing, slides were counterstained with DAPI and mounted in […]® Antifade Mounting Medium with DAPI (Vector Laboratories; H-1200-10). Fluorescence microscope with oil immersed 100× objective was used to detect telomeric signal at chromosome ends.

SKOV3 = assay: growth of SKOV3 cells by ATPlite; format: cell-based; details: 7 days
Method: 2,000 SKOV3 and A2780 cells were seeded in 100 µl of McCoy's 5a or RPMI 1640 media, respectively, for one day and then incubated with iKU-1 for 7 days. Number of viable cells was measured by ATPlite kit (Perkin Elmer) and normalized to the treatment with 0.5% DMSO.

Ku complex [3] = biological target: T1, Ku complex; assay: electrophoretic mobility shift assay (EMSA) of Ku binding to double stranded DNA; details: 98 bp DNA probe, compared with STL127705 (Figure 1)
Source text: We also compared iKU-1 (Compound 1) and the published Ku inhibitor STL127705 (Weterings, E., Gallegos, A.C., Dominick, L.N., Cooke, L.S., Bartels, T.N., Vagner, J., Matsunaga, T.O., and Mahadevan, D. (2016). A novel small molecule inhibitor of the DNA repair protein Ku70/80. DNA Repair (Amst) 43, 98-106) in their efficiency to inhibit binding of Ki to double stranded DNA by electrophoretic mobility shift assay (Figure 1). A 98 bp long oligonucleotide that can bind up to four Ku complexes was used as a probe.
DNA (0.6 nM) in 10 µl EMSA buffer (35 mM Tris-Cl pH 7.9, 150 mM KCl, 1 mM EDTA, 0.1 mM Dithiothreitol, 5% Glycerol) was mixed with 10 µl of human Ku complex (100 nM in EMSA buffer) preincubated with the inhibitors for 5 min at room temperature, and incubated for additional 10 min. DNA associated with Ku complexes was seprated by native polyacrylamide gel electrophoresis (5% polyacrylamide 29:1 [Sigma-Aldrich], 0.5 TBE) at 160 V for 4 hrs. Gels were dried in gel dryer on 3MM paper, exposed to phospho-screen (GE Healthcare) and the autoradiograms were generated by scanning with Typhoon (GE Healthcare).

HCT116 cells [4] = assay: cell proliferation, ATPlite assay; format: cell-based; details: Homo sapiens, HCT-116, 120 h, read-out: Inhibition of cell proliferation IC50
Method: HCT116, U2OS and HeLa cells were grown in McCoy's 5a medium supplemented with 10% Fetal Bovine Serum, 2 mM L-Glutamine and Penicilin/Streptomycin 200 U/l each in the presence of Compound 1-9. After growth at 37 °C, 5% CO2 for 3 days, monolayer of cells was detached using TrypLE Express (Gibco), cells were counted using 0.4% trypan blue stain and hemocytometer. […] Number of viable cells was estimated using ATPlite kit (Perkin Elmer).

U2OS = assay: combination with BIBR1532, relative growth by ATPlite; format: cell-based, human; details: 10 µM BIBR1532, 0.25 µM iKU-1 or their combination, 4 days

O=C(Nc1nc(-c2ccccn2)cs1)c1cncc(Br)c1 [Compound 1]
total level of DNA-PKcs (DNA-PKcs; then bleomycin for 4 hrs): not altered
phosphorylation of DNA-PKcs (S2056) (DNA-PKcs; then bleomycin up to 30 µg/ml for 4 hrs): blocked the phosphorylation
IC50 (Ku complex [1]; mwPIFE, estimated from the 0.5 to 8 µM concentration range, read-out: Inhibition of Ku-DNA binding IC50): 3 µM
remaining activity at 8 µM (Ku complex [1]; read-out: % binding at 8 µM (100% = 0.5% DMSO)): 5%
relative growth assessed by ATPlite kit compared to the control sample treated with 0.5% DMSO (HeLa): 1.22
incidence of telomere-free chromosome ends (HCT116 cells [2]): increase incidence of telomere-free chromosome ends
sensitivity of cells (growth) (SKOV3; SKOV3, 0.5 µM): sensitive
sensitivity of SKOV3 relative to A2780 (SKOV3; from growth curves (Figure 9)): 10 times
efficiency to inhibit binding of Ku to double stranded DNA (Ku complex [3]): more potent inhibitor of Ku-DNA binding than STL127705
IC50 (HCT116 cells [4]): 0.5 µM
relative growth assessed by ATPlite kit compared to the control sample treated with 0.5% DMSO (U2OS): 0.81
